Target: T1, CYP2C8 (Homo sapiens, UniProt P10632)
T1 construct: using pooled human liver microsomes; tissue BD Gentest Co. H161; host or cells: pooled human liver microsomes
T1 sequence (P10632 1-490): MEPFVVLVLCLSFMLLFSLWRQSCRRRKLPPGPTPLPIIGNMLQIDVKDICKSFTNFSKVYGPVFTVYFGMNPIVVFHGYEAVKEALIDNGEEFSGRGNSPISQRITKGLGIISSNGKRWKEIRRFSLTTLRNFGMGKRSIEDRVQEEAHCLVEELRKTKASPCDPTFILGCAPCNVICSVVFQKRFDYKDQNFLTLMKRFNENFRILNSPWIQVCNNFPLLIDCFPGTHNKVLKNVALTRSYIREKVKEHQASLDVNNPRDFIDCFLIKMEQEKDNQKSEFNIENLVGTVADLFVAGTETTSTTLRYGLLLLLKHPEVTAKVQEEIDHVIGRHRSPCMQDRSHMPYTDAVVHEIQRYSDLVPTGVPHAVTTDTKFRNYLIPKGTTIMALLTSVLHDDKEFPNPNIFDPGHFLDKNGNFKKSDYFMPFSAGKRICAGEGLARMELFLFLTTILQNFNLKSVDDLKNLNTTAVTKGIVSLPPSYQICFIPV
Assay: CYP2C8 amodiaquine N-deethylation inhibition, cocktail assay in pooled human liver microsomes
Assay type: in vitro ADME
Conditions: 2.5 μM amodiaquine, no inhibition at 200 μM of corydaline; for IC50 no preincubation, CYP2C8 amodiaquine N-deethylation: pooled human liver microsomes (H161)
Experimental: Phenacetin O-deethylase, coumarin 7-hydroxylase, amodiaquine N-deethylase, diclofenac 4-hydroxylase, S-mephenytoin 4-hydroxylase, bufuralol hydroxylase, and midazolam 1’-hydroxylase activities were determined as probe activities for CYP1A2, CYP2A6, CYP2C8, CYP2C9, CYP2C19, CYP2D6, and CYP3A4, respectively, using cocktail incubation and liquid chromatography-tandem mass spectrometry (LC/MS/MS). The incubation mixtures were prepared in a total volume of 200 μL, as follows: pooled human liver microsomes (0.25 mg/mL), 1.3 mM NADPH, 3.3 mM MgCl2, 50 mM potassium phosphate buffer (pH 7.4), and a cocktail of probe substrates and various concentrations of corydaline (1−200 μM). The substrates were used at concentrations approximately equal to their respective Km values: 50 μM phenacetin, 2.5 μM coumarin, 2.5 μM amodiaquine, 10 μM diclofenac, 100 μM S-mephenytoin, 5 μM bufuralol, and 2.5 μM midazolam. After a 3-min pre-incubation period at 37 °C, the reactions were initiated by addition of an NADP generating system and incubated for 20 min at 37 °C in a shaking water bath. After incubation, the reaction was stopped by placement of the tubes on ice and addition of 100 μL of ice-cold methanol containing internal standards (^13C2,^15N-acetaminophen for acetaminophen and N-desethylamodiaquine, d5-7-hydroxycoumarin for 7-hydroxycoumarin, ^13C6-4-hydroxydiclofenac for 4-hydroxydiclofenac, d3-4-hydroxy-mephenytoin for 4-hydroxymephenytoin and hydroxymidazolam, d9-1-hydroxybufuralol for 1-hydroxybufuralol). The incubation mixtures were then centrifuged at 13,000 × g for 5 min. All incubations were performed in triplicate and the mean values were used. […] The reaction was started by addition of a cocktail of CYP probe substrates.
All 7 metabolites produced from the cocktail of CYP isoform-specific substrates were simultaneously determined by LC/MS/MS [25]. […] Quantification was performed by selected reaction monitoring (SRM) of the [M+H]^+ ion and the related product ion for each metabolite. […]

IC50 no preincubation, CYP2C8 amodiaquine N-deethylation: negligible inhibition | IC50 no preincubation, CYP2C8 amodiaquine N-deethylation (listed as corydaline): No inhibition ** | IC50 with preincubation, CYP2C8 amodiaquine N-deethylation (pre-incubated 30 min with NADPH): No inhibition **
Structure (SMILES): COc1cc2c(cc1OC)C1C(C)c3ccc(OC)c(OC)c3CN1CC2 (stereo not drawn) [Corydaline, 2,3,9,10-tetramethoxy-13-methyl-5,8,13,13a-tetrahydro-6H-isoquino[3,2-a]isoquinoline]

Reference: article PMC6264278, “Corydaline Inhibits Multiple Cytochrome P450 and UDP-Glucuronosyltransferase Enzyme Activities in Human Liver Microsomes” (Molecules, 2011)
